In ChEMBL document CHEMBL4376849, “Harmicines - harmine and cinnamic acid hybrids as novel antiplasmodial hits” (Eur J Med Chem, 2020):
pIC50: −log10 of the molar value.

Key:
[1] = test system: Plasmodium falciparum; assay: Antiplasmodial activity against chloroquine-resistant Plasmodium falciparum Dd2 erythrocytic stage measured after 3 days by HRP2 assay; type: functional, organism-based; conditions: Dd2, 72 h
[2] = Selectivity index, ratio of IC50 for human HepG2 cells to IC50 for Plasmodium falciparum 3D7; type: toxicity; conditions: read-out: Ratio IC50
[3] = test system: Plasmodium falciparum; assay: Antiplasmodial activity against chloroquine-sensitive Plasmodium falciparum 3D7 erythrocytic stage measured after 3 days by HRP2 assay; type: functional, organism-based; conditions: 3D7, 72 h
[4] = test system: HepG2; assay: Cytotoxicity against human HepG2 cells measured after 24 hrs by neutral red assay; type: cell-based; conditions: HepG2, 24 h
[5] = test system: Plasmodium berghei; assay: Antiplasmodial activity against liver stage luciferase expressing Plasmodium berghei sporozoites infected in human Huh7 cells preincubated with host cells for 1 hr followed by plasmodium infection by bioluminescence assay; type: functional, organism-based; conditions: Huh-7

SMILES | pIC50 [1] | selectivity ratio [2] | pIC50 [3] | pIC50 [4] | pIC50 [5]
COc1ccc2c3ccnc(C)c3n(Cc3cn(C/C=C/c4ccc(F)cc4)nn3)c2c1 | 5.66 | 10 | 6.06 | 5.05 | 
Cc1nccc2c1[nH]c1cc(OCc3cn(C/C=C/c4ccc(F)c(F)c4)nn3)ccc12 | 6.00 | 2 | 6.47 | 6.13 | 
COc1ccc2c3ccnc(C)c3n(Cc3cn(C/C=C/c4ccc(Cl)cc4)nn3)c2c1 | 5.73 | > 568 | 6.36 | < 3.60 | 5.95
COc1ccc2c3ccnc(C)c3n(Cc3cn(C/C=C/c4cccc(Br)c4)nn3)c2c1 | 5.65 | 101 | 6.25 | 4.25 | 5.96
C/C(=C\c1ccccc1)Cn1cc(COc2ccc3c4ccnc(C)c4n(Cc4cn(C/C(C)=C/c5ccccc5)nn4)c3c2)nn1 | 5.40 | 19 | 5.87 | 4.60 | 
COc1ccc(/C=C/Cn2cc(COc3ccc4c(c3)[nH]c3c(C)nccc34)nn2)cc1 | 6.16 | 12 | 6.37 | 5.27 | 
Cc1nccc2c3ccc(OCc4cn(C/C=C/c5ccc(F)c(F)c5)nn4)cc3n(Cc3cn(C/C=C/c4ccc(F)c(F)c4)nn3)c12 | 4.75 | 6 | 5.97 | 4.96 | 
COc1ccc(/C=C/Cn2cc(Cn3c4cc(OC)ccc4c4ccnc(C)c43)nn2)cc1 | 4.78 | > 197 | 6.21 | < 3.92 | 
Cc1nccc2c1[nH]c1cc(OCc3cn(C/C=C/c4cccc(F)c4)nn3)ccc12 | 5.92 | 16 | 6.70 | 5.51 | 
Cc1nccc2c1[nH]c1cc(OCc3cn(C/C=C/c4ccc5c(c4)OCO5)nn3)ccc12 | 6.33 | 35 | 6.80 | 5.25 | 
COc1ccc2c(c1)[nH]c1c(C)nccc12 [HARMINE] | < 4.56 |  |  | < 3.60 | 
COc1ccc2c3ccnc(C)c3n(Cc3cn(C/C=C/c4ccc5c(c4)OCO5)nn3)c2c1 | 5.80 | 18 | 6.30 | 5.06 | 
C/C(=C\c1ccccc1)Cn1cc(COc2ccc3c(c2)[nH]c2c(C)nccc23)nn1 | 5.51 | 77 | 6.48 | 4.60 | 6.18
COc1ccc2c3ccnc(C)c3n(Cc3cn(C/C=C/c4ccc(F)c(F)c4)nn3)c2c1 | 5.59 | 15 | 6.19 | 5.01 | 
COc1ccc(/C=C/Cn2cc(COc3ccc4c5ccnc(C)c5n(Cc5cn(C/C=C/c6ccc(OC)cc6)nn5)c4c3)nn2)cc1 | 6.80 | 333 | 6.89 | 4.36 | 6.40
Cc1nccc2c1[nH]c1cc(OCc3cn(C/C=C/c4cccc(Br)c4)nn3)ccc12 | 6.34 | 22 | 6.89 | 5.54 | 
Cc1nccc2c3ccc(OCc4cn(C/C=C/c5ccc(F)cc5)nn4)cc3n(Cc3cn(C/C=C/c4ccc(F)cc4)nn3)c12 | 5.10 | 20 | 6.21 | 4.92 | 
COc1ccc2c3ccnc(C)c3n(Cc3cn(C/C=C/c4ccccc4)nn3)c2c1 | 4.62 | > 198 | 5.90 | < 3.60 | 5.58
Cc1nccc2c1[nH]c1cc(OCc3cn(C/C=C/c4ccccc4)nn3)ccc12 | 5.96 | 37 | 6.59 | 5.01 | 
Cc1nccc2c1[nH]c1cc(OCc3cn(C/C=C/c4ccc(F)cc4)nn3)ccc12 | 6.08 | 11 | 6.70 | 5.66 | 
Cc1nccc2c3ccc(OCc4cn(C/C=C/c5ccccc5)nn4)cc3n(Cc3cn(C/C=C/c4ccccc4)nn3)c12 | 5.80 | 15 | 6.25 | 5.07 | 
Cc1nccc2c3ccc(OCc4cn(C/C=C/c5cccc(F)c5)nn4)cc3n(Cc3cn(C/C=C/c4cccc(F)c4)nn3)c12 | 5.49 | 2 |  | 5.22 | 
COc1ccc2c3ccnc(C)c3n(Cc3cn(C/C=C/c4cccc(F)c4)nn3)c2c1 | 5.57 | > 281 | 6.05 | < 3.60 | 
Cc1nccc2c1[nH]c1cc(OCc3cn(C/C=C/c4ccc(Cl)cc4)nn3)ccc12 | 6.16 | 59 | 6.82 | 5.06 | 
Cc1nccc2c3ccc(OCc4cn(C/C=C/c5ccc(Cl)cc5)nn4)cc3n(Cc3cn(C/C=C/c4ccc(Cl)cc4)nn3)c12 | 5.48 | 116 | 6.60 | 4.54 | 
COc1ccc2c3ccnc(C)c3n(Cc3cn(C/C(C)=C/c4ccccc4)nn3)c2c1 | 5.55 | 15 | 6.11 | 4.93 | 
Cc1nccc2c3ccc(OCc4cn(C/C=C/c5ccc6c(c5)OCO6)nn4)cc3n(Cc3cn(C/C=C/c4ccc5c(c4)OCO5)nn3)c12 | 6.19 | 82 | 6.36 | 4.44 | 
